In patent US20240390377A1, “COMPOSITION FOR THE PREVENTION OR TREATMENT OF NEURODEGENERATIVE OR MOTOR NEURON DISEASES COMPRISING HALOFUGINONE AS AN ACTIVE INGREDIENT” (CURAMYS CO., LTD., priority 2022, published 2024):

What was measured:
C2C12 cells [1] = assay: Western blot analysis of C2C12 myoblasts (TGF-β1 stimulation, halofuginone treatment); format: cell-based, mouse; details: 24 hours of 5 ng/ml TGF-β1 stimulation (FIG. 2b)
Method: (§1) Specifically, C2C12 cells (CRL-1772) were purchased from the American Type Culture Collection (ATCC) and maintained in DMEM medium (Welgene) containing 10% (v/v) fetal bovine serum (FBS; Gibco) and 1% penicillin-streptomycin (P/S; Gibco) at 37° C. under 5% CO2 conditions. The C2C12 cells were seeded in 6-well plates at a density of 3×10^5 cells per well and allowed to adhere for 24 hours. Subsequently, the medium was replaced with serum-free medium after 24 hours, followed by stimulation with 5 ng/ml rhTGF-β1 (recombinant human TGF-β1; R&D Systems). After stimulation, the cells were treated with various concentrations (0 [control], or 1, 2.5, 5 [low dose], 10 [high dose], 20, 50, 100 ng/ml) of halofuginone (Sigma) in serum-free medium for 24 hours.
Specifically, the lumbar spinal cord or knee joint of the mouse of Example 6 was separated and immediately frozen at −80° C. Each lumbar spinal cord or knee joint was then homogenized and chemically treated to obtain cells. The chemically treated cells, the C2C12 cells of Example 1 or the fibroblasts of Example 5 were dissolved in a RIPA buffer (Thermo, MA, USA) with a protease inhibitor and a phosphatase inhibitor (Roche, IN, USA) and incubated on ice for 30 minutes. After centrifugation of the lysate at 13,000 rpm at 4° C. for 20 min, insoluble substances were removed. Protein concentrations were measured by BCA analysis (Pierce Biotechnology). Equal volumes of cell lysate were loaded onto SDS-PAGE gels for electrophoresis, and transferred onto nitrocellulose membranes (Amersham Protran 0.2 um NC, Amersham Pharmacia Biotech, Piscataway, NJ, USA). The membranes were then blocked with 5% (w/v) skimmilk in 1×TBST for 1 h at room temperature. After blocking, anti-RB-actin antibody (1:5000; Santa Cruz, cat #sc47778), anti-Smad2 antibody (1:1000; Cell Signaling, cat #5339), anti-p-Smad2 antibody (1:1000; Cell Signaling, cat #3108), anti-TGF-β1 antibody (1:1000; Santa Cruz, cat #sc130348), anti-α-SMA antibody (1:10000; abcam cat #ab7817), anti-MyoD antibody (1:1000; cat #sc377460), anti-collagen|antibody (1:1000; abcam cat #ab21286), anti-cleaved caspase-3 antibody (1:1000; Cell Signaling, cat #9661), anti-bax antibody (1:500; Santa Cruz, cat #sc493), anti-bcl2 antibody (1:1000; Novus Biologics, cat #NB100-56098), anti-ChAT antibody (1:1000; Millipore, cat #AB144) were treated and incubated overnight at 4° C. Subsequently, membranes were washed several times with 1×TBST and incubated with horseradish peroxidase-conjugated secondary antibodies (anti-mouse, rabbit or goat, 1:5000; GE Healthcare) in blocking buffer for 1 h at room temperature (RT). The membranes were then washed, briefly incubated with the SuperSignal West Pico Plus Chemical Substructure (Pierce Biotechnology) according to the manufacturer's procedure, and quantified with an image analyzer (Amersham Pharmacia Biotech, Piscataway, NJ, USA). β-actin was used as an internal control group. The concentration measurement of protein intensity was quantified using Image J (National Institutes of Health).
(§2) Specifically, after treating C2C12 cells with TGF-β1 for 24 hours as in Example 1, real-time qRT-PCR was performed in the same manner as in Example 11 to confirm TGF-β1, 2 and 3, α-SMA and MyoD mRNA expression (FIG. 2a), and Western blot analysis was performed in the same manner as in Example 12 to confirm autocrine expression of TGF-β1 and MyoD protein and α-SMA (FIG. 2b).
Specifically, C2C12 cells were treated with halofuginone after TGF-β1 stimulation or no stimulation in the same manner as described in Example 2, and cell viability analysis was performed through CCK-8 analysis (FIGS. 3a and 3b), and Western blot analysis was performed in the same manner as described in Example 12 to confirm autocrine expression of p-Smad2, Smad2, TGF-β1, MyoD, collagen I protein and α-SMA (FIG. 3c). […]

C2C12 cells [2] = assay: Real-time qRT-PCR analysis of C2C12 myoblasts (TGF-β1 stimulation, halofuginone treatment); format: cell-based, mouse; details: 24 hours of 5 ng/ml TGF-β1 stimulation, vs control group (FIG. 2a)
Method: as §1
Specifically, total RNA was isolated from C2C12 cells in Example 1, fibroblasts in Example 5, and the lumbar spinal cord of mice in Example 6 using the FavorPrep™ Tri-RNA Reagent (Favorgen). The lumbar spinal cord was isolated from the mouse in Example 6 and stored frozen at −80° C. until the experiment. The concentration of total RNA was measured at 260 nm absorbance using a spectrophotometer (NanoDrop Spectrophotometer ND-2000, Thermo Scientific). cDNA was synthesized from 1 μg of total RNA using the ReverTra Ace-α™ (Toyobo) according to the manufacturers protocol. Quantitative RT-PCR was performed using the SYBR Green ExcelTaq™ 2× Fast Q-PCR Master Mix (TQ1200, Smobio) on a thermocycler (CFX Connect Real-Time PCR Detection System, BIO-RAD) with the primers listed in Table 3 below. Fluorescence data were analyzed with Bio-Rad CFX Manager 3.1 software, and control versus relative mRNA expression was calculated by the 2AT) method. Experiments were performed four times on all samples. All primers were designed using Primer3 online software, and GAPDH was used as a control group.
as §2
Specifically, as in Example 1, C2C12 cells were stimulated with TGF-β1 for 24 hours, and then halofuginone was treated for 24 hours, and real-time qRT-PCR was performed in the same manner as in Example 11 to confirm TGF-β1, α-SMA, MyoD, and collagen I (Col-I) mRNA expression (FIG. 4a). In addition, Western blot analysis was performed in the same manner as in Example 12 to confirm TGF-β1, α-SMA, MyoD, and collagen I protein expression (FIG. 4b). In addition, immunocytochemical analysis was performed in the same manner as in Example 3 to confirm α-SMA and MyoD expression (FIG. 4c).

Substance: TGF-β1: recombinant human TGF-β1 (R&D Systems) used to stimulate C2C12 myoblasts
- TGF-β1 protein expression (C2C12 cells [1]): significantly increased
- protein expression of MyoD (C2C12 cells [1]): significantly decreased
- α-SMA protein expression (C2C12 cells [1]): significantly increased
- mRNA expression of α-SMA (C2C12 cells [2]): significantly increased
- mRNA level of MyoD (C2C12 cells [2]): significantly decreased
- mRNA level of TGF-β1 (C2C12 cells [2]): significantly increased
- mRNA level of TGF-β2 (C2C12 cells [2]): significantly increased
- mRNA level of TGF-β3 (C2C12 cells [2]): significantly increased
